Where a name gives a salt, the structure may show the parent alone.
molecular target: recombinant human CCR5 receptor (Homo sapiens, UniProt P51681); experiment: MIP-1α radioligand binding assay (scintillation proximity); conditions: displacement of 0.1 nM iodinated MIP-1α; membranes from Chinese hamster ovary cells; average if tested more than once
Experimental: The ability of compounds to inhibit the binding of MIP-1α was assessed by an in vitro radioligand binding assay. Membranes were prepared from Chinese hamster ovary cells which expressed the recombinant human CCR5 receptor. These membranes were incubated with 0.1 nM iodinated MIP-1α, scintillation proximity beads and various concentrations of the compounds of the invention in 96 well plates. The amount of iodinated MIP-1α bound to the receptor was determined by scintillation counting. Competition curves were obtained for compounds and the concentration of compound which displaced 50% of bound iodinated MIP-1α was calculated (IC50).
In Table II the results are presented as Pic50 values. A Pic50 value is the negative log (to base 10) of the IC50 result, so an IC50 of 1 μM (that is 1×10^−6M) gives a Pic50 of 6. If a compounds was tested more than once then the data below is an average of the probative tests results.

Chain of recombinant human CCR5 receptor (P51681 whole entry): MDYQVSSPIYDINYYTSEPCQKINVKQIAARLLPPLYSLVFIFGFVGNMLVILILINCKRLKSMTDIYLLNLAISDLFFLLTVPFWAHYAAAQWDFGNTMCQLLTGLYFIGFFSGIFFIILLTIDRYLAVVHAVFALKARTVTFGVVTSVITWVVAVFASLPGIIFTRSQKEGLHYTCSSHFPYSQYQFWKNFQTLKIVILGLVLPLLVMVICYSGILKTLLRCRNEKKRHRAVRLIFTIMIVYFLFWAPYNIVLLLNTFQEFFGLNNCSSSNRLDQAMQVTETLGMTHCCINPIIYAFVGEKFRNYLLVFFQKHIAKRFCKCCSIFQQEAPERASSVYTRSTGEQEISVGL

| Structure (SMILES) | Pic50 | IC50 [nM] |
| --- | --- | --- |
| CCN(C(=O)Cc1ccc(S(C)(=O)=O)cc1)C1CCN(CC[C@H](NC(=O)N2CCSCC2)c2ccccc2)CC1 [Compound No. 83, (S)-N-[1-(3-phenyl-3-[thiomorpholin-4-ylcarboxyamino]propyl)-4-piperidinyl]-N-ethyl-4-methanesulfonylphenylacetamide] | 7.97 |  |
| CCN(C(=O)Cc1ccc(S(C)(=O)=O)cc1)C1CCN(CC[C@H](NC(=O)c2ccccc2)c2cccc(F)c2)CC1 [Compound No. 103, (S)-N-{1-[3-benzoylamino-3-(3-fluorophenyl)propyl]piperidin-4-yl}-N-ethyl-2-(4-methanesulfonyl-phenyl)acetamide] |  | 0.437 |
| CCN(C(=O)Cc1ccc(S(C)(=O)=O)cc1)C1CCN(CC[C@H](NC(=O)c2ccc(NC(C)=O)cc2)c2ccccc2)CC1 [compound 97] |  | 26.9 |
| CCN(C(=O)Cc1ccc(S(C)(=O)=O)cc1)C1CCN(CC[C@H](NC(=O)CC(C)(C)O)c2ccccc2)CC1 [compound 110] |  | 45.7 |
| CCN(C(=O)Cc1ccc(S(C)(=O)=O)cc1)C1CCN(CC[C@H](NC(=O)N2CCCCC2)c2cccc(F)c2)CC1 [compound 107] |  | 0.933 |
| CCN(C(=O)Cc1ccc(S(C)(=O)=O)cc1)C1CCN(CC[C@H](NC(=O)c2ccc(S(C)(=O)=O)s2)c2ccccc2)CC1 [compound 79] |  | 28.2 |
| CCN(C(=O)Cc1ccc(S(C)(=O)=O)cc1)C1CCN(CC[C@H](NC(=O)CC(C)(C)C)c2cccc(F)c2)CC1 [Compound No. 106, (S)-N-{1-[3-(3,3-dimethylbutyrylamino)-3-(3-fluorophenyl)propyl]piperidin-4-yl}-N-ethyl-2-(4-methanesulfonyl-phenyl)acetamide] |  | 0.562 |
| CCN(C(=O)Cc1ccc(S(C)(=O)=O)cc1)C1CCN(CC[C@H](NC(=O)c2[nH]nnc2C(C)C)c2ccccc2)CC1 [compound 92] |  | 631 |
| CCN(C(=O)Cc1ccc(S(C)(=O)=O)cc1)C1CCN(CC[C@H](NC(=O)c2ccc(C(F)(F)F)o2)c2ccccc2)CC1 [compound 88] |  | 33.1 |
| CCN(C(=O)Cc1ccc(S(C)(=O)=O)cc1)C1CCN(CC[C@H](NC(=O)C2CCSCC2)c2ccccc2)CC1 [Compound No. 109, (S)-N-[1-(3-phenyl-3-[tetrahydrothiopyran-4-yl-carboxyamino]propyl)-4-piperidinyl]-N-ethyl-4-methanesulfonylphenylacetamide] | 9.27 |  |
| CCN(C(=O)Cc1ccc(S(C)(=O)=O)cc1)C1CCN(CC[C@H](NC(=O)c2cccc(S(C)(=O)=O)c2)c2ccccc2)CC1 [compound 98] |  | 14.5 |
| CCN(C(=O)Cc1ccc(S(C)(=O)=O)cc1)C1CCN(CC[C@H](NC(=O)C(F)F)c2ccccc2)CC1 [Compound No. 84, (S)-N-[1-(3-phenyl-3-difluoroacetylaminopropyl)-4-piperidinyl]-N-ethyl-4-methanesulfonylphenylacetamide hydrochloride] |  | 35.5 |
| CCN(C(=O)Cc1ccc(S(C)(=O)=O)cc1)C1CCN(CC[C@H](NC(=O)c2ccc(NS(C)(=O)=O)cc2)c2ccccc2)CC1 [compound 101] |  | 4.68 |
| CCN(C(=O)Cc1ccc(S(C)(=O)=O)cc1)C1CCN(CC[C@H](NC(=O)c2cccc(C#N)c2)c2ccccc2)CC1 [Compound No. 93, (S)-N-[1-(3-phenyl-3-[3-cyanobenzoylamino]propyl)-4-piperidinyl]-N-ethyl-4-methanesulfonylphenylacetamide] |  | 16.2 |
| CCN(C(=O)Cc1ccc(S(C)(=O)=O)cc1)C1CCN(CC[C@H](NC(=O)C2CCOCC2)c2cccc(F)c2)CC1 [compound 105] |  | 2.88 |
| CCN(C(=O)Cc1ccc(S(C)(=O)=O)cc1)C1CCN(CC[C@H](NC(=O)c2cnccc2C(F)(F)F)c2ccccc2)CC1.Cl | 7.32 |  |
| CCN(C(=O)Cc1ccc(S(C)(=O)=O)cc1)C1CCN(CC[C@H](NC(=O)c2ccc(C#N)cc2)c2ccccc2)CC1 [compound 94] |  | 27.5 |
| CCN(C(=O)Cc1ccc(S(C)(=O)=O)cc1)C1CCN(CC[C@H](NC(=O)c2cc(F)cc(F)c2)c2ccccc2)CC1 [compound 82] |  | 20 |

| Structure (SMILES) | Pic50 | IC50 [nM] |
| --- | --- | --- |
| CCN(C(=O)Cc1ccc(S(C)(=O)=O)cc1)C1CCN(CC[C@H](NC(=O)c2ccc(NC(C)=O)nc2)c2ccccc2)CC1 [compound 68] |  | 66.1 |
| CCN(C(=O)Cc1ccc(S(C)(=O)=O)cc1)C1CCN(CC[C@H](NC(=O)c2ccc(S(C)(=O)=O)cc2)c2ccccc2)CC1 [compound 99] |  | 40.7 |
| CCN(C(=O)Cc1ccc(S(C)(=O)=O)cc1)C1CCN(CC[C@H](NC(=O)c2ccno2)c2ccccc2)CC1 [compound 64] |  | 331 |
| CCN(C(=O)Cc1ccc(S(C)(=O)=O)cc1)C1CCN(CC[C@H](NC(=O)c2ccc(S(=O)(=O)NC)cc2)c2ccccc2)CC1 [compound 100] |  | 23.4 |
| CCN(C(=O)Cc1ccc(S(C)(=O)=O)cc1)C1CCN(CC[C@H](NC(=O)C2CCOC(C)(C)C2)c2ccccc2)CC1 (stereo partly drawn) [Compound No. 81, (s)-N-[1-(3-phenyl-3-[2,2-dimethyltetrahydropyran-4-yl-carboxyamino]propyl)-4-piperidinyl]-N-ethyl-4-methanesulfonylphenylacetamide] | 7.7 |  |
| CCN(C(=O)Cc1ccc(S(C)(=O)=O)cc1)C1CCN(CC[C@H](NC(=O)c2cnc[nH]2)c2ccccc2)CC1 [compound 90] |  | 245 |
| CCN(C(=O)Cc1ccc(S(C)(=O)=O)cc1)C1CCN(C(C)C[C@H](NC(=O)C2CCOCC2)c2ccccc2)CC1 (stereo partly drawn) [Compound No. 95, (3′S)-N-[1-(1-methyl-3-phenyl-3-[tetrahydropyran-4-yl-carboxyamino]propyl)-4-piperidinyl]-N-ethyl-4-methanesulfonylphenylacetamide] |  | 0.191 |
| CCN(C(=O)Cc1ccc(S(C)(=O)=O)cc1)C1CCN(CC[C@H](NC(=O)c2ccc(C(F)(F)F)cc2)c2ccccc2)CC1 [compound 102] |  | 9.55 |
| CCN(C(=O)Cc1ccc(S(C)(=O)=O)cc1)C1CCN(CC[C@H](NC(=O)C(C)CC(F)(F)F)c2ccccc2)CC1 (stereo partly drawn) [compound 87] |  | 16.2 |
| CCN(C(=O)Cc1ccc(S(C)(=O)=O)cc1)C1CCN(CC[C@H](NC(=O)CC(F)(F)F)c2ccccc2)CC1 [Compound No. 86, (S)-N-[1-(3-phenyl-3-[3,3,3-trifluoropropionylamino]propyl)-4-piperidinyl]-N-ethyl-4-methanesulfonylphenylacetamide hydrochloride] |  | 2 |
| CCN(C(=O)Cc1ccc(S(C)(=O)=O)cc1)C1CCN(CC[C@H](NC(=O)c2ccoc2)c2ccccc2)CC1 [compound 52] |  | 14.1 |
| CCN(C(=O)Cc1ccc(S(C)(=O)=O)cc1)C1CCN(CC[C@H](NC(=O)c2csnn2)c2ccccc2)CC1 [compound 63] |  | 91.2 |
| CCN(C(=O)Cc1ccc(S(C)(=O)=O)cc1)C1CCN(CC[C@H](NC(=O)CC(F)(F)F)c2cccc(F)c2)CC1 [Compound No. 108, (S)-N-{1-[3-(3,3,3-trifluoropropionylamino)-3-(3-fluorophenyl)propyl]piperidinyl}-N-ethyl-2-(4-methanesulfonyl-phenyl)acetamide] | 8.02 |  |
| CCN(C(=O)Cc1ccc(S(C)(=O)=O)cc1)C1CCN(CC[C@H](NC(=O)c2ccc[nH]2)c2ccccc2)CC1 [compound 53] |  | 15.5 |
| CCN(C(=O)Cc1ccc(S(C)(=O)=O)cc1)C1CCN(CC[C@H](NC(=O)c2ccc(=O)[nH]c2)c2ccccc2)CC1 [compound 89] |  | 57.5 |
| CCN(C(=O)Cc1ccc(S(C)(=O)=O)cc1)C1CCN(CC[C@H](NC(=O)CCC(F)(F)F)c2ccccc2)CC1 [Compound No. 96, (S)-N-[1-(3-phenyl-3-[4,4,4-trifluorobutyrylamino]propyl)-4-piperidinyl]-N-ethyl-4-methanesulfonylphenylacetamide hydrochloride] |  | 2.34 |
| CCN(C(=O)Cc1ccc(S(C)(=O)=O)cc1)C1CCN(CC[C@H](NC(=O)c2cccc(F)c2)c2cccc(F)c2)CC1 [Compound No. 104, (S)-N-{1-[3-(3-fluorobenzoylamino)-3-(3-fluorophenyl)propyl]piperidin-4-yl}-N-ethyl-2-(4-methanesulfonyl-phenyl)acetamide] |  | 0.447 |
| CCN(C(=O)Cc1ccc(S(C)(=O)=O)cc1)C1CCN(CC[C@H](NC(=O)N2CCS(=O)(=O)CC2)c2ccccc2)CC1 [Compound No. 91, (S)-N-[1-(3-phenyl-3-[1,1-dioxothiomorpholin-4-ylcarboxyamino]propyl)-4-piperidinyl]-N-ethyl-4-methanesulfonylphenylacetamide] | 7.52 |  |
